Counter-ions that a name gives are not always drawn. Like-named read-outs stand apart in the source and are kept apart here.
How the values were obtained:
[1] = system: iCell cardiomyocytes (human iPSC-derived cardiomyocytes); test: High-content imaging of cytotoxicity and mitochondrial integrity in iPSC-CMs; format: cell-based; conditions: Homo sapiens; for viability at 0.01 µM / activity at 0.01 µM / viability at 0.1 µM / activity at 0.1 µM / viability at 1 µM / activity at 1 µM / viability at 10 µM / activity at 10 µM / viability at 100 µM / activity at 100 µM: Cardiomyocyte, 0.00 µM = 100.00; for viability at 0.1 µM / activity at 0.1 µM: 0.10 µM; for minimal effective concentration: iPSC-CM
Summary of the method: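 Cardiomyocytes grown on gelatinized 384-well plates received fresh medium on the experiment day and were then exposed to chemicals at 0.01–100μM. Nuclei and mitochondria were labeled with Hoechst 33342 and MitoTracker™ Orange, then fixed, and imaged on an ImageXpress® Micro Confocal system. Four-parameter logistic concentration–response fits in R, with a one-standard-deviation vehicle cutoff, gave point-of-departure values.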

HUVECs = test: High-content imaging cytotoxicity in HUVECs, 24 h; format: cell-based, human; conditions: Homo sapiens, HUVEC, 24 h, HUVECs; for viability at 0.01 µM / activity at 0.01 µM / viability at 0.1 µM / activity at 0.1 µM / viability at 1 µM / activity at 1 µM / viability at 10 µM / activity at 10 µM / viability at 100 µM / activity at 100 µM: 0.00 µM = 100.00; for viability at 0.1 µM / activity at 0.1 µM: 0.10 µM; for minimal effective concentration: top concentration 100.00 µM
Summary of the method: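 Confluent HUVEC monolayers, passages 1–5, received test chemicals for 24 h. Cytotoxicity was scored from triple-stain high-content images, with PODs defined by a one-SD deviation from 0.5% DMSO vehicle controls.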

[2] = 24 hr, read-out: huvec.cyto.24hr
[3] = 24 hr, read-out: huvec.mito.24hr
[4] = 24 hr, read-out: huvec.mitoint.24hr
[5] = 24 hr, read-out: huvec.nma.24hr
[6] = 24 hrs, read-out: huvec.tc.24hrs

Compound: O=S(=O)(O)Oc1ccc(-c2ccc(Cl)cc2)cc1 [4'-yl PCB 3 sulfate]
- viability at 0.01 µM ([1]; 1.5 h, read-out: cm.cam.90min): 90.6%
- activity at 0.01 µM ([1]; 1.5 h, read-out: cm.mii.90min): 111%
- activity at 0.01 µM ([1]; 1.5 h, read-out: cm.mito.90min): 90.4%
- viability at 0.01 µM ([1]; 1.5 h, read-out: cm.tc.90min): 90.5%
- viability at 0.1 µM ([1]; 1.5 h, read-out: cm.cam.90min): 97.2%
- activity at 0.1 µM ([1]; 1.5 h, read-out: cm.mii.90min): 109%
- activity at 0.1 µM ([1]; 1.5 h, read-out: cm.mito.90min): 97.2%
- viability at 0.1 µM ([1]; 1.5 h, read-out: cm.tc.90min): 97.5%
- viability at 1 µM ([1]; 1.5 h, read-out: cm.cam.90min): 101%
- activity at 1 µM ([1]; 1.5 h, read-out: cm.mii.90min): 109%
- activity at 1 µM ([1]; 1.5 h, read-out: cm.mito.90min): 101%
- viability at 1 µM ([1]; 1.5 h, read-out: cm.tc.90min): 102%
- viability at 10 µM ([1]; 1.5 h, read-out: cm.cam.90min): 102%
- activity at 10 µM ([1]; 1.5 h, read-out: cm.mii.90min): 107%
- activity at 10 µM ([1]; 1.5 h, read-out: cm.mito.90min): 102%
- viability at 10 µM ([1]; 1.5 h, read-out: cm.tc.90min): 102%
- viability at 100 µM ([1]; 1.5 h, read-out: cm.cam.90min): 96.5%
- activity at 100 µM ([1]; 1.5 h, read-out: cm.mii.90min): 113%
- activity at 100 µM ([1]; 1.5 h, read-out: cm.mito.90min): 96.7%
- viability at 100 µM ([1]; 1.5 h, read-out: cm.tc.90min): 96.7%
- viability at 0.01 µM ([1]; 24 h, read-out: cm.cam.24hrs): 97.3%
- activity at 0.01 µM ([1]; 24 h, read-out: cm.mii.24hrs): 98.4%
- activity at 0.01 µM ([1]; 24 h, read-out: cm.mito.24hrs): 95.5%
- viability at 0.01 µM ([1]; 24 h, read-out: cm.tc.24hrs): 97.4%
- viability at 0.1 µM ([1]; 24 h, read-out: cm.cam.24hrs): 105%
- activity at 0.1 µM ([1]; 24 h, read-out: cm.mii.24hrs): 111%
- activity at 0.1 µM ([1]; 24 h, read-out: cm.mito.24hrs): 106%
- viability at 0.1 µM ([1]; 24 h, read-out: cm.tc.24hrs): 106%
- viability at 1 µM ([1]; 24 h, read-out: cm.cam.24hrs): 107%
- activity at 1 µM ([1]; 24 h, read-out: cm.mii.24hrs): 98.9%
- activity at 1 µM ([1]; 24 h, read-out: cm.mito.24hrs): 108%
- viability at 1 µM ([1]; 24 h, read-out: cm.tc.24hrs): 107%
- viability at 10 µM ([1]; 24 h, read-out: cm.cam.24hrs): 102%
- activity at 10 µM ([1]; 24 h, read-out: cm.mii.24hrs): 92%
- activity at 10 µM ([1]; 24 h, read-out: cm.mito.24hrs): 101%
- viability at 10 µM ([1]; 24 h, read-out: cm.tc.24hrs): 102%
- viability at 100 µM ([1]; 24 h, read-out: cm.cam.24hrs): 104%
- activity at 100 µM ([1]; 24 h, read-out: cm.mii.24hrs): 82.3%
- activity at 100 µM ([1]; 24 h, read-out: cm.mito.24hrs): 103%
- viability at 100 µM ([1]; 24 h, read-out: cm.tc.24hrs): 105%
- minimal effective concentration ([1]; 1.5 h, read-out: cm.cam.90min POD): 100 µM
- minimal effective concentration ([1]; 1.5 h, read-out: cm.mii.90min POD): 100 µM
- minimal effective concentration ([1]; 1.5 h, read-out: cm.mito.90min POD): 100 µM
- minimal effective concentration ([1]; 1.5 h, read-out: cm.tc.90min POD): 100 µM
- minimal effective concentration ([1]; 24 h, read-out: cm.cam.24hrs POD): 100 µM
- minimal effective concentration ([1]; 24 h, read-out: cm.mii.24hrs POD): 53.5 µM
- minimal effective concentration ([1]; 24 h, read-out: cm.mito.24hrs POD): 100 µM
- minimal effective concentration ([1]; 24 h, read-out: cm.tc.24hrs POD): 100 µM
- viability at 0.01 µM (HUVECs; [2]): 98.5%
- activity at 0.01 µM (HUVECs; [3]): 97.5%
- activity at 0.01 µM (HUVECs; [4]): 90.2%
- activity at 0.01 µM (HUVECs; [5]): 99%
- viability at 0.1 µM (HUVECs; [2]): 90.8%
- activity at 0.1 µM (HUVECs; [3]): 89.7%
- activity at 0.1 µM (HUVECs; [4]): 109%
- activity at 0.1 µM (HUVECs; [5]): 102%
- viability at 1 µM (HUVECs; [2]): 87.4%
- activity at 1 µM (HUVECs; [3]): 86.3%
- activity at 1 µM (HUVECs; [4]): 97.9%
- activity at 1 µM (HUVECs; [5]): 100%
- viability at 10 µM (HUVECs; [2]): 103%
- activity at 10 µM (HUVECs; [3]): 103%
- activity at 10 µM (HUVECs; [4]): 83.8%
- activity at 10 µM (HUVECs; [5]): 97.1%
- viability at 100 µM (HUVECs; [2]): 88.9%
- activity at 100 µM (HUVECs; [3]): 87.6%
- activity at 100 µM (HUVECs; [4]): 114%
- activity at 100 µM (HUVECs; [5]): 97.7%
- minimal effective concentration (HUVECs; 24 hr, read-out: huvec.cyto.24hr POD): 100 µM
- minimal effective concentration (HUVECs; 24 hr, read-out: huvec.mito.24hr POD): 100 µM
- minimal effective concentration (HUVECs; 24 hr, read-out: huvec.mitoint.24hr POD): 100 µM
- minimal effective concentration (HUVECs; 24 hr, read-out: huvec.nma.24hr POD): 100 µM
- viability at 0.01 µM (HUVECs; [6]): 98.5%
- viability at 0.1 µM (HUVECs; [6]): 90.8%
- viability at 1 µM (HUVECs; [6]): 87.4%
- viability at 10 µM (HUVECs; [6]): 103%
- viability at 100 µM (HUVECs; [6]): 88.9%
- minimal effective concentration (HUVECs; 24 hrs, read-out: huvec.tc.24hrs POD): 100 µM

Reference: article PMC7377239, “Cardiovascular Effects of Polychlorinated Biphenyls and Their Major Metabolites” (Environmental Health Perspectives, 2020)
